Key:
[1] = biological target: T1, Glutathione-S-transferase-labeled FXR human protein (Homo sapiens, UniProt Q96RI1); assay: FXR biochemical experiment (AlphaScreen, coactivator recruitment); conditions: for EC50: AlphaScreen, GST-FXR human protein + biotin-labeled steroid receptor coactivator, read-out: FXR enzyme activity EC50; for Emax: ratio of highest signal of the compound to that of the reference compound, read-out: FXR enzyme activity Efficacy
T1 construct: purchased Invitrogen
T1 sequence (Q96RI1 1-486): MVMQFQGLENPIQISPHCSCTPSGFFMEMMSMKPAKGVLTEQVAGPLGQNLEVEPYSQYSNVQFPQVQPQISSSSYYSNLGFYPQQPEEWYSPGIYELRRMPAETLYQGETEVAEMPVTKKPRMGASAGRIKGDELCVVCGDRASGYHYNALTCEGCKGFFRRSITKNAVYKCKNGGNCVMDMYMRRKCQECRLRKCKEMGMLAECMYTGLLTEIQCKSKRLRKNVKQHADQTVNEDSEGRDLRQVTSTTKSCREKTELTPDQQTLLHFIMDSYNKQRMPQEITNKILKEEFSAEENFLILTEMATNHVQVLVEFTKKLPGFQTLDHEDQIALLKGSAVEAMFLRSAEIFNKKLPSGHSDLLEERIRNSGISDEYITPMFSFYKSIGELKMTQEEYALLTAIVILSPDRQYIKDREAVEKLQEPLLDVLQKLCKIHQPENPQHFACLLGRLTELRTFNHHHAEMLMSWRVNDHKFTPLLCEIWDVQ
Protocol: FXR Biochemical Experiment Experimental Purpose: The activation effect of the compound on FXR binding reaction was detected by AlphaScreen. […] Protein: Glutathione-S-transferase-labeled FXR human protein (Invitrogen) 2. Co-activator: Biotin-labeled steroid receptor coactivator (Anaspec) 3. […] Compound Dilution: The compound to be tested was prepared as a 40 μM DMSO solution, and then diluted 3-fold to 10 concentration points. The reference compound was prepared as a 400 μM DMSO solution, and then diluted 1.5-fold to 10 concentration points. The diluted DMSO solution was added to the wells of a 384-well plate in a volume of 150 nL per well. 2. […] 4. […] The operation during the experimental process was protected from light. The incubation was performed for 1 hour at room temperature. 5. […] The operation during the experimental process was protected from light. The incubation was performed for 1 hour at room temperature. 6. EC50 test: Envision was used with excitation at 680 nm to read the […] signals at 520-620 nm. 7. Analytical data: The data were analyzed via using Prism 5.0, and the EC50 values of the activation effects of the compounds were calculated.

[2] = Liver-blood ratio experiment of mice via cassette dosing; type: in vivo, mice (C57BL/6J); conditions: oral cassette 2 mg/kg
Protocol: Liver-Blood Ratio Experiment of Mice Via Cassette Dosing
6 male mice (C57BL/6J) were grouped as an oral administration group. 5 kinds of the developed drugs were contained in the formulation, and intragastrical administration was performed at a dose of 2 mg/kg/compound (the vehicle was 0.5% HPMC aqueous solution). The five compounds were firstly and respectively dissolved in the vehicle, and sonicated or whirled to form a 1 mg/mL solution (clear solution or suspension), respectively; and then the solutions of the five compound were mixed in equal volumes (1:1:1:1:1, v:v:v:v:v) into a glass bottle. After intragastrical oral administration, plasma and liver tissue samples were collected from 3 animals at 0.5 h after administration; corresponding samples were collected from the other 3 animals at 3 h after administration. After collection, the liver tissue was homogenized by using ice-cold homogenization buffer (methanol:15 mM PBS buffer (pH 7.4)=1:2, v:v) based on the ratio of liver weight:homogenization buffer volume=1:3. Plasma and liver tissue samples were analyzed by using a five-in-one LC-MS/MS analysis method developed in advance. The concentrations of plasma and liver tissue homogenate were obtained, and the concentration ratios of liver tissue to plasma were calculated by using Excel.

CC[C@H]1[C@@H](O)[C@@H]2[C@H](CC[C@]3(C)[C@@H]([C@H](C)CCN4CCC[C@@H]4C(=O)O)CC[C@@H]23)[C@@]2(C)CC[C@@H](O)C[C@@H]12 [Example 2]
EC50 [1]: 1460 nM
Emax [1]: 114%

CC[C@H]1[C@@H](O)[C@@H]2[C@H](CC[C@]3(C)[C@@H]([C@H](C)CCN4CCC[C@H]4C(=O)O)CC[C@@H]23)[C@@]2(C)CC[C@@H](O)C[C@@H]12 [Example 3]
EC50 [1]: 2620 nM
Emax [1]: 106%

CC[C@H]1[C@@H](O)[C@@H]2[C@H](CC[C@]3(C)[C@@H]([C@H](C)CCOc4ccccc4C(=O)O)CC[C@@H]23)[C@@]2(C)CC[C@@H](O)C[C@@H]12 [Example 8]
Emax [1]: 264%

CC[C@H]1[C@@H](O)[C@@H]2[C@H](CC[C@]3(C)[C@@H]([C@H](C)CCOc4cnc(C(=O)O)nc4)CC[C@@H]23)[C@@]2(C)CC[C@@H](O)C[C@@H]12 [Example 12]
EC50 [1]: 70 nM
Emax [1]: 240%

CC[C@H]1[C@@H](O)[C@@H]2[C@H](CC[C@]3(C)[C@@H]([C@H](C)CCOc4cnccc4C(=O)O)CC[C@@H]23)[C@@]2(C)CC[C@@H](O)C[C@@H]12 [Example 13]
EC50 [1]: 390 nM
Emax [1]: 270%

CC[C@H]1[C@@H](OC)[C@@H]2[C@H](CC[C@]3(C)[C@@H]([C@H](C)CCOCC45CC(C(=O)O)(C4)C5)CC[C@@H]23)[C@@]2(C)CC[C@@H](O)C[C@@H]12 [Example 14]
EC50 [1]: 730 nM
Emax [1]: 195%

CC[C@H]1[C@@H](O)[C@@H]2[C@H](CC[C@]3(C)[C@@H]([C@H](C)CCOc4cccnc4C(=O)O)CC[C@@H]23)[C@@]2(C)CC[C@@H](O)C[C@@H]12 [Example 16]
EC50 [1]: 310 nM
Emax [1]: 247%

CC[C@H]1[C@@H](O)[C@@H]2[C@H](CC[C@]3(C)[C@@H]([C@H](C)CCCOc4ccc(C(=O)O)cn4)CC[C@@H]23)[C@@]2(C)CC[C@@H](O)C[C@@H]12 [Example 18]
EC50 [1]: 70 nM
Emax [1]: 187%

CC[C@H]1[C@@H](O)[C@@H]2[C@H](CC[C@]3(C)[C@@H]([C@H](C)/C=C/c4cccc(C(=O)O)c4)CC[C@@H]23)[C@@]2(C)CC[C@@H](O)C[C@@H]12 [Example 20]
EC50 [1]: 60 nM
Emax [1]: 287%

CC[C@H]1[C@@H](O)[C@@H]2[C@H](CC[C@]3(C)[C@@H]([C@H](C)CCOc4ncc(C(=O)O)cc4F)CC[C@@H]23)[C@@]2(C)CC[C@@H](O)C[C@@H]12 [Example 24]
Emax [1]: 138%

CC[C@H]1[C@@H](O)[C@@H]2[C@H](CC[C@]3(C)[C@@H]([C@H](C)CCOc4cccc(C(=O)O)n4)CC[C@@H]23)[C@@]2(C)CC[C@@H](O)C[C@@H]12 [Example 25]
EC50 [1]: 11 nM
Emax [1]: 233%

CC[C@H]1[C@@H](O)[C@@H]2[C@H](CC[C@]3(C)[C@@H]([C@H](C)CCOc4ccc(C(=O)NS(C)(=O)=O)cn4)CC[C@@H]23)[C@@]2(C)CC[C@@H](O)C[C@@H]12 [Example 27]
EC50 [1]: 6 nM
Emax [1]: 212%

CC[C@H]1[C@@H](O)[C@@H]2[C@H](CC[C@]3(C)[C@@H]([C@H](C)CCOc4ccc(C(=O)NS(=O)(=O)C5CC5)cn4)CC[C@@H]23)[C@@]2(C)CC[C@@H](O)C[C@@H]12 [Example 28]
EC50 [1]: 7 nM
Emax [1]: 219%

CC[C@H]1[C@@H](O)[C@@H]2[C@H](CC[C@]3(C)[C@@H]([C@H](C)CCOc4ccc(C(=O)NS(=O)(=O)C(C)(C)C)cn4)CC[C@@H]23)[C@@]2(C)CC[C@@H](O)C[C@@H]12 [Example 29]
EC50 [1]: 12 nM
Emax [1]: 190%

CC[C@H]1[C@@H](O)[C@@H]2[C@H](CC[C@]3(C)[C@@H]([C@H](C)CCOc4ccc(C(=O)NS(=O)(=O)C(C)C)cn4)CC[C@@H]23)[C@@]2(C)CC[C@@H](O)C[C@@H]12 [Example 30]
EC50 [1]: 56 nM
Emax [1]: 150%

CC[C@H]1[C@@H](O)[C@@H]2[C@H](CC[C@]3(C)[C@@H]([C@H](C)CCOc4ccc(C(=O)NS(=O)(=O)c5ccccc5)cn4)CC[C@@H]23)[C@@]2(C)CC[C@@H](O)C[C@@H]12 [Example 31]
EC50 [1]: 27 nM
Emax [1]: 204%

CC[C@H]1[C@@H](O)[C@@H]2[C@H](CC[C@]3(C)[C@@H]([C@H](C)CCOc4ccc(C(=O)Nc5ccccc5)cn4)CC[C@@H]23)[C@@]2(C)CC[C@@H](O)C[C@@H]12 [Example 32]
EC50 [1]: 650 nM
Emax [1]: 140%

CC[C@H]1[C@@H](O)[C@@H]2[C@H](CC[C@]3(C)[C@@H]([C@H](C)CCOc4ccc(C(=O)NC)cn4)CC[C@@H]23)[C@@]2(C)CC[C@@H](O)C[C@@H]12 [Example 33]
EC50 [1]: 141 nM
Emax [1]: 194%

CC[C@H]1[C@@H](O)[C@@H]2[C@H](CC[C@]3(C)[C@@H]([C@H](C)CCOc4ccc(C(=O)NC5CC5)cn4)CC[C@@H]23)[C@@]2(C)CC[C@@H](O)C[C@@H]12 [Example 34]
EC50 [1]: 93 nM
Emax [1]: 191%

CC[C@H]1[C@@H](O)[C@@H]2[C@H](CC[C@]3(C)[C@@H]([C@H](C)CCOc4ccc(C(=O)NCCS(=O)(=O)O)cn4)CC[C@@H]23)[C@@]2(C)CC[C@@H](O)C[C@@H]12 [Example 38]
EC50 [1]: 20 nM
Emax [1]: 210%

CC[C@H]1[C@@H](O)[C@@H]2[C@H](CC[C@]3(C)[C@@H]([C@H](C)CCOc4ccc(C(=O)NCC(=O)O)cn4)CC[C@@H]23)[C@@]2(C)CC[C@@H](O)C[C@@H]12 [Example 39]
EC50 [1]: 20 nM
Emax [1]: 205%

CC[C@H]1[C@@H](O)[C@@H]2[C@H](CC[C@]3(C)[C@@H]([C@H](C)CCCOc4ncc(C(=O)O)cc4Cl)CC[C@@H]23)[C@@]2(C)CC[C@@H](O)C[C@@H]12 [Example 40]
EC50 [1]: 45 nM
Emax [1]: 197%

CC[C@H]1[C@@H](O)[C@@H]2[C@H](CC[C@]3(C)[C@@H]([C@H](C)CCOc4ccnc(C(=O)O)c4)CC[C@@H]23)[C@@]2(C)CC[C@@H](O)C[C@@H]12 [Example 41]
EC50 [1]: 80 nM
Emax [1]: 127%

CC[C@H]1[C@@H](O)[C@@H]2[C@H](CC[C@]3(C)[C@@H]([C@H](C)CC(=O)Nc4cncc(C(=O)O)c4)CC[C@@H]23)[C@@]2(C)CC[C@@H](O)C[C@@H]12 [Example 42]
EC50 [1]: 1430 nM
Emax [1]: 121%

CC[C@H]1[C@@H](O)[C@@H]2[C@H](CC[C@]3(C)[C@@H]([C@H](C)CCNc4cncc(C(=O)O)c4)CC[C@@H]23)[C@@]2(C)CC[C@@H](O)C[C@@H]12 [Example 43]
EC50 [1]: 370 nM
Emax [1]: 193%

CC[C@H]1[C@@H](O)[C@@H]2[C@H](CC[C@]3(C)[C@@H]([C@H](C)CCOc4ccc(C(=O)OC)cn4)CC[C@@H]23)[C@@]2(C)CC[C@@H](O)C[C@@H]12 [Example 44]
EC50 [1]: 330 nM
Emax [1]: 140%

CC[C@H]1[C@@H](O)[C@@H]2[C@H](CC[C@]3(C)[C@@H]([C@H](C)CCC(=O)O)CC[C@@H]23)[C@@]2(C)CC[C@@H](O)C[C@@H]12 [INT-747, reference compound]
Concentration in liver ([2]; 0.5 h): 711 nM
Concentration in plasma ([2]; 0.5 h): 151 nM
Concentration ratio of liver to plasma ([2]; 0.5 h): 5
Concentration in liver ([2]; 3 h): 625 nM
Concentration in plasma ([2]; 3 h): 63 nM
Concentration ratio of liver to plasma ([2]; 3 h): 10
